Organism: Rattus norvegicus
Experiment: DrugMatrix - Regimen: Daily Repeat
Type: toxicity, organism-based, Sprague-Dawley
Design: regimen Daily Repeat, gender Male, age 6-8 weeks
Conditions: in vivo, po, route oral GAVAGE, vehicle .5 % CMC; for ABSOLUTE BASOPHIL / ABSOLUTE EOSINOPHIL / ABSOLUTE LYMPHOCYTE / ABSOLUTE MONOCYTE / ABSOLUTE SEGMENTED NEUTROPHIL / BASOPHIL / EOSINOPHIL / ERYTHROCYTE COUNT / HEMATOCRIT / HEMOGLOBIN / LEUKOCYTE COUNT / LYMPHOCYTE / MEAN CORPUSCULAR HEMOGLOBIN / MEAN CORPUSCULAR HEMOGLOBIN CONCENTRATION / MEAN CORPUSCULAR VOLUME / MONOCYTE / NEUTROPHIL / NUCLEATED RED BLOOD CELLS / PLATELET COUNT: tissue Blood; for ALANINE AMINOTRANSFERASE / ALBUMIN / ALKALINE PHOSPHATASE / ASPARTATE AMINOTRANSFERASE / BLOOD UREA NITROGEN / CARBON DIOXIDE / CHLORIDE / CHOLESTEROL / CREATINE PHOSPHOKINASE / CREATININE / GLUCOSE / LACTATE DEHYDROGENASE / LIPASE / PHOSPHORUS / POTASSIUM / SODIUM / TOTAL BILIRUBIN / TOTAL PROTEIN / URIC ACID: tissue Plasma
[1] = 0.1 mg/kg, 120 h, dose level Low, time 5 day
[2] = […], 72 h, dose 1.1 mg/Kg, dose level High, time 3 day
[3] = […], 120 h, dose 1.1 mg/Kg, dose level High, time 5 day

CCCN1C[C@H](CSC)C[C@@H]2c3cccc4[nH]cc(c34)C[C@H]21 [PERGOLIDE]
ABSOLUTE BASOPHIL [1]: 0 CELLS/uL | ABSOLUTE EOSINOPHIL [1]: 175 CELLS/uL | ABSOLUTE LYMPHOCYTE [1]: 12836.67 CELLS/uL | ABSOLUTE MONOCYTE [1]: 191.67 CELLS/uL | ABSOLUTE SEGMENTED NEUTROPHIL [1]: 1130 CELLS/uL | BASOPHIL [1]: 0% | EOSINOPHIL [1]: 1% | ERYTHROCYTE COUNT [1]: 6.04 x10E6/uL | HEMATOCRIT [1]: 38.1% | HEMOGLOBIN [1]: 14.47 G/DL | LEUKOCYTE COUNT [1]: 14.33 x10E3/uL | LYMPHOCYTE [1]: 89.67% | MEAN CORPUSCULAR HEMOGLOBIN [1]: 24.1 pg | MEAN CORPUSCULAR HEMOGLOBIN CONCENTRATION [1]: 38.07 G/DL | MEAN CORPUSCULAR VOLUME [1]: 63.27 fL | MONOCYTE [1]: 1.33% | NEUTROPHIL [1]: 8% | NUCLEATED RED BLOOD CELLS [1]: 0 /100WBC | PLATELET COUNT [1]: 1209 x10E3/uL | ALANINE AMINOTRANSFERASE [1]: 50.33 u/L | ALBUMIN [1]: 4.13 G/DL | ALKALINE PHOSPHATASE [1]: 348 u/L | ASPARTATE AMINOTRANSFERASE [1]: 111.67 u/L | BLOOD UREA NITROGEN [1]: 19.33 mg/dL | CARBON DIOXIDE [1]: 24 mmol/L | CHLORIDE [1]: 107 MEQ/L | CHOLESTEROL [1]: 76.67 mg/dL | CREATINE PHOSPHOKINASE [1]: 1319 u/L | CREATININE [1]: 0.21 mg/dL | GLUCOSE [1]: 156 mg/dL | LACTATE DEHYDROGENASE [1]: 398.67 u/L | LIPASE [1]: 10 u/L | PHOSPHORUS [1]: 13.17 mg/dL | POTASSIUM [1]: 6.18 MEQ/L | SODIUM [1]: 145.93 MEQ/L | TOTAL BILIRUBIN [1]: 0.2 mg/dL | TOTAL PROTEIN [1]: 6.23 G/DL | URIC ACID [1]: 2.13 mg/dL | ABSOLUTE BASOPHIL [2]: 0 CELLS/uL | ABSOLUTE EOSINOPHIL [2]: 0 CELLS/uL | ABSOLUTE LYMPHOCYTE [2]: 11487 CELLS/uL | ABSOLUTE MONOCYTE [2]: 388 CELLS/uL | ABSOLUTE SEGMENTED NEUTROPHIL [2]: 1058.33 CELLS/uL | BASOPHIL [2]: 0% | EOSINOPHIL [2]: 0% | ERYTHROCYTE COUNT [2]: 5.69 x10E6/uL | HEMATOCRIT [2]: 36.2% | HEMOGLOBIN [2]: 13.43 G/DL | LEUKOCYTE COUNT [2]: 12.93 x10E3/uL | LYMPHOCYTE [2]: 88.67% | MEAN CORPUSCULAR HEMOGLOBIN [2]: 23.63 pg | MEAN CORPUSCULAR HEMOGLOBIN CONCENTRATION [2]: 37.13 G/DL | MEAN CORPUSCULAR VOLUME [2]: 63.6 fL | MONOCYTE [2]: 3% | NEUTROPHIL [2]: 8.33% | NUCLEATED RED BLOOD CELLS [2]: 0 /100WBC | PLATELET COUNT [2]: 1255.67 x10E3/uL | ALANINE AMINOTRANSFERASE [2]: 71 u/L | ALBUMIN [2]: 4.2 G/DL | ALKALINE PHOSPHATASE [2]: 385.33 u/L | ASPARTATE AMINOTRANSFERASE [2]: 116 u/L | BLOOD UREA NITROGEN [2]: 16 mg/dL | CARBON DIOXIDE [2]: 24.67 mmol/L | CHLORIDE [2]: 104.67 MEQ/L | CHOLESTEROL [2]: 68 mg/dL | CREATINE PHOSPHOKINASE [2]: 406 u/L | CREATININE [2]: 0.19 mg/dL | GLUCOSE [2]: 157 mg/dL | LACTATE DEHYDROGENASE [2]: 402.67 u/L | LIPASE [2]: 10 u/L | PHOSPHORUS [2]: 12.03 mg/dL | POTASSIUM [2]: 6.59 MEQ/L | SODIUM [2]: 145.53 MEQ/L | TOTAL BILIRUBIN [2]: 0.2 mg/dL | TOTAL PROTEIN [2]: 5.67 G/DL | URIC ACID [2]: 1.73 mg/dL | ABSOLUTE BASOPHIL [3]: 0 CELLS/uL | ABSOLUTE EOSINOPHIL [3]: 64.33 CELLS/uL | ABSOLUTE LYMPHOCYTE [3]: 14339 CELLS/uL | ABSOLUTE MONOCYTE [3]: 275 CELLS/uL | ABSOLUTE SEGMENTED NEUTROPHIL [3]: 888.33 CELLS/uL | BASOPHIL [3]: 0% | EOSINOPHIL [3]: 0.33% | ERYTHROCYTE COUNT [3]: 6.31 x10E6/uL | HEMATOCRIT [3]: 40.47% | HEMOGLOBIN [3]: 15.03 G/DL | LEUKOCYTE COUNT [3]: 15.57 x10E3/uL | LYMPHOCYTE [3]: 92.33% | MEAN CORPUSCULAR HEMOGLOBIN [3]: 23.77 pg | MEAN CORPUSCULAR HEMOGLOBIN CONCENTRATION [3]: 37.23 G/DL | MEAN CORPUSCULAR VOLUME [3]: 63.93 fL | MONOCYTE [3]: 1.67% | NEUTROPHIL [3]: 5.67% | NUCLEATED RED BLOOD CELLS [3]: 0 /100WBC | PLATELET COUNT [3]: 990.67 x10E3/uL | ALANINE AMINOTRANSFERASE [3]: 44.33 u/L | ALBUMIN [3]: 4.53 G/DL | ALKALINE PHOSPHATASE [3]: 385.67 u/L | ASPARTATE AMINOTRANSFERASE [3]: 82 u/L | BLOOD UREA NITROGEN [3]: 17.33 mg/dL | CARBON DIOXIDE [3]: 27.33 mmol/L | CHLORIDE [3]: 108.33 MEQ/L | CHOLESTEROL [3]: 76.67 mg/dL | CREATINE PHOSPHOKINASE [3]: 501.67 u/L | CREATININE [3]: 0.22 mg/dL | GLUCOSE [3]: 154 mg/dL | LACTATE DEHYDROGENASE [3]: 206.33 u/L | LIPASE [3]: 9.33 u/L | PHOSPHORUS [3]: 11.87 mg/dL | POTASSIUM [3]: 6.29 MEQ/L | SODIUM [3]: 147.9 MEQ/L | TOTAL BILIRUBIN [3]: 0.23 mg/dL | TOTAL PROTEIN [3]: 6.37 G/DL | URIC ACID [3]: 1.63 mg/dL
